Laboratory results: US6423699B1, “Combination therapies using benzimidazolones” (American Home Products Corporation, priority 1999, dated 2002)
“And” between values parts separate entries of the source, which are not always exact repeats. Identical values can stand only once.

Test system: rat uterine decidualization
Assay: Rat decidualization assay
Assay type: in vivo
Details: decidual response; for Estimated average EC50 (mg/kg s.c.): average over dose-response curves; for Estimated EC50 (mg/kg s.c.), individual studies: ovariectomized rats, uterine wet weight
Experimental: 2. Rat Decidualization Assay
b. Animals (RACUC protocol #5002)
The animals are treated once daily for seven days.
Uteri are removed and trimmed of fat.
Body weight: Mean total animal body weight (default-kg)
Decidual response: [(D−C)/C]×100%

## C#C[C@]1(O)CC[C@H]2[C@@H]3CCC4=CC(=O)CC[C@@H]4[C@H]3C(=C)C[C@@]21CC [3-Ketodesogestrel]
  Estimated average EC50 (mg/kg s.c.): 0.10 mg/kg s.c.
  Estimated EC50 (mg/kg s.c.), individual studies: 0.10 mg/kg s.c. and 0.06 mg/kg s.c. and 0.11 mg/kg s.c.

## CC(=O)O[C@]1(C(C)=O)CC[C@H]2[C@@H]3C[C@H](C)C4=CC(=O)CC[C@]4(C)[C@H]3CC[C@@]21C [MPA, medroxyprogesterone acetate]
  Estimated EC50 (mg/kg s.c.), individual studies: 0.42 mg/kg s.c. and 0.39 mg/kg s.c. (2×)

## CC(=O)[C@H]1CC[C@H]2[C@@H]3CCC4=CC(=O)CC[C@]4(C)[C@H]3CC[C@]12C [Progesterone]
  Estimated average EC50 (mg/kg s.c.): 5.62 mg/kg s.c.
  Estimated EC50 (mg/kg s.c.), individual studies: 5.50 mg/kg s.c.

## C#C[C@]1(O)CC[C@H]2[C@@H]3CCC4=CC(=O)CC[C@@H]4[C@H]3CC[C@@]21CC [Levonorgestrel]
  Estimated average EC50 (mg/kg s.c.): 0.10 mg/kg s.c.
  Estimated EC50 (mg/kg s.c.), individual studies: 0.08 mg/kg s.c. and 0.12 mg/kg s.c. and 0.09 mg/kg s.c. (2×)
